Results as given in PMC12752627, “Discovery of a Potent and Selective TEAD Degrader with Durable Degradation Activity” (Advanced Science, 2025).

Experiments:
NCI-H226 cells = assay: DIA proteomics in NCI-H226 cells; assay type: cell-based, Homo sapiens; conditions: 100 nM, 24 h
Procedure: Cells were seeded in 6‐well plates at 1 × 10⁶ cells well^−1 and treated with 100 nM KG‐FP‐003 (n = 3). After 24 h incubation, cells were harvested, washed with ice‐cold PBS, and stored at −80 °C. Cell pellets were lysed in 4 volumes of lysis buffer (1% SDS, 1% protease inhibitor cocktail) followed by 3 min sonication on ice. After centrifugation (12 000 g, 10 min, 4 °C), supernatants were collected for BCA protein quantification. Proteins were reduced with 5 mM DTT (56 °C, 30 min), alkylated with 11 mM iodoacetamide (RT, dark, 15 min), and diluted with 200 mM TEAB to reduce urea concentration below 2 M. Trypsin digestion (1:50 enzyme‐to‐protein ratio) was performed at 37 °C overnight followed by additional 4 h digestion. Peptides were desalted using Strata‐X SPE columns. […] MS analysis was performed on a timsTOF Pro mass spectrometer in dia‐PASEF mode (ESI voltage: 1.75 kV; scan range: 300–1500 m z^−1). DIA data were processed using DIA‐NN (v1.8) against the Homo_sapiens_9606_SP_20 231 220.fasta database (20429 entries) with reversed decoys, using trypsin as the cleavage enzyme. Fixed modifications included N‐terminal methionine excision and carbamidomethylation of cysteine, with FDR set at <1%.

TEAD1 = TEAD1 (Homo sapiens, UniProt P28347); assay: Immunoblot in wild-type / CRBN-knockout HEK293T cells and rescue experiment; assay type: cell-based; design: endogenous in cells; host or cells: HEK293T wild-type and CRBN-knockout; conditions: 6 h treatment
Procedure: Immunoblotting was carried out as previously described.^[ [29] ^] Cells were seeded in 6‐well plates (Yeasen, #84011ES50) at a density of 1 million cells per well. The following day, cells were treated with compounds at the required concentrations, with the DMSO concentration kept below 0.4‰ to prevent toxic effects on the cells. The collected cell pellets were washed three times with PBS (Meilunbio, #MA0015) and resuspended in 120 µL of RIPA lysis buffer (Meilunbio, #MA0151) containing 1% protease inhibitor (Meilunbio, #MB2678‐2). The cells were then sonicated on ice and centrifuged at 12 000 rpm for 15 min at 4 °C to remove cellular debris. Protein concentrations were determined using the BCA Protein Quantification Kit (Meilunbio, #MA0082‐1). The protein samples were normalized, boiled at 99 °C for 10 min, and then subjected to electrophoresis on a 10% SDS‐PAGE gel. The separated protein bands were transferred to nitrocellulose membranes, blocked with TBST containing 5% BSA, and incubated with the indicated primary antibodies. Finally, the blots were imaged using an Amersham Typhoon NIR imager.

[1] = system: CTGF, ANKRD1, NPPB, PTX3 expression; assay: RT-qPCR in A172 cells incl. washout; assay type: cell-based; conditions: 6 h treatment, 18 h
Procedure: Cells were seeded in 6‐well plates at a density of 1 million cells per well. The following day, different concentrations of compounds were added, and cells were collected after 24 h. For wash‐out experiments, cells were pre‐treated with compounds at indicated concentrations for 6 h, then cells were washed three times with PBS, and an equal volume of complete medium without compounds was added and incubated for another 18 h.
RNA was isolated and purified from the samples using the EZ‐10 Rotary Column Total RNA Isolation Kit (Sangon Biotech, B615012). After measuring the RNA concentration, 200 ng of purified RNA was used for genomic DNA removal and reverse transcription to cDNA with the HiScript III 1st Strand cDNA Synthesis Kit (+DNA wiper) (Vazyme, R312‐02). The resulting cDNA was then prepared into a reaction mix according to the ChamQ SYBR qPCR Mix (Vazyme, #q711‐02). Real‐time PCR analysis was performed using a QuantStudio 6 Pro real‐time PCR system (Thermo Fisher Scientific). Relative gene expression was calculated using the 2‐∆∆CT method.

KLE cells = assay: Cell viability assay (CTG, 72 h) KLE; assay type: cell-based; conditions: Homo sapiens, KLE, 72 h, 3-day compound treatment
Procedure: (§1) Cells were seeded at a density of 1000 cells per well in 96‐well flat‐bottomed cell culture plates and cultured overnight at 37 °C with 5% CO2 to allow for cell attachment. The following day, different concentrations of compounds were added using an I‐DOT dispenser. After 72 h, 25 µL of CellTiter‐Meiluncell Luminescent Cell Viability Reagent (Meilunbio, #PWL111‐2) was added and incubated for 15 min at room temperature. Luminescence signals were then measured using an Envision plate reader (Revvity). Data were analyzed using GraphPad Prism 9.5 software.^[ [30] ^]

CRBN-DDB1 = CRBN-DDB1 (Homo sapiens, UniProt Q96SW2); assay: CRBN binding assay, biochemical (HTRF); conditions: recombinant CRBN-DDB1, 1 h, read-out: Biochemical CRBN Binary Binding IC50 (nM ± SD)
Procedure: Next, 400 nL of compound solution (initial concentration 10 µM, followed by a three‐fold gradient dilution) was dispensed into the wells using the positive‐pressure‐based I‐DOT dispenser. After 1 h of incubation at room temperature, the HTRF signal was measured using an Envision plate reader (Revvity). Finally, the data were analyzed using non‐linear regression curves in GraphPad Prism 9.5 software.

SmBiT-CRBN+LgBiT-TEAD1 = biological target: T1, SmBiT-CRBN+LgBiT-TEAD1 (Homo sapiens, UniProt P28347+Q96SW2); assay: NanoBiT recruitment assay (ternary complex formation) in HEK293T cells; assay type: cell-based; conditions: 3 h
T1 construct: ternary complex formation between CRBN (41‐442) and TEAD1‐YBD (208‐424) in HEK293T cells; expressed in transfected cells; host or cells: HEK293T (transient co-transfection)
Procedure: CRBN was cloned into the SmBiT Flexi vector pFN35K (Promega), while TEAD1 was cloned into the Promega LgBiT Flexi vector pFN33K (Promega). A total of 8 µg of plasmid DNA, consisting of 2 µg of SmBiT‐CRBN plasmid and 6 µg of LgBiT‐TEAD1 plasmid, was mixed with 24 µL of the liposome transfection reagent Lipo2000 (Meilunbio, #MA0672), added to 300 µL of Opti‐MEM Reduced Serum medium (Meilunbio, #PWL042), and incubated for 20 min at room temperature. The resulting mixture was then added to 3 mL of HEK293T cell suspension at a density of 1 × 10^6 cells mL^−1 in DMEM medium containing 1% FBS, mixed thoroughly, and 18.4 µL of the mixture was transferred to each well of a white 384‐well plate (Corning, #3570), followed by incubation for 24 h. Subsequently, 2.5 µL of MLN4924 (MCE, #HY‐70062) was added to reach a final concentration of 1 µM, and the cells were incubated for an additional 4 h. Next, 3 µL of compound KG‐FP‐003 at the indicated concentrations was added, and incubation continued for 3 more hours. Afterward, a mixture of Nano‐Glo Live Cell Substrate and Nano‐Glo LCS Dilution Buffer (Promega, #N2011) was added to the 384‐well plates at 6 µL per well and incubated for 20 min at room temperature. Finally, the luminescence signal was measured using an Envision plate reader (Revvity), and the data were analyzed using GraphPad Prism 9.5 software.

HOS cells = assay: Cell viability assay (CTG, 72 h) HOS; assay type: cell-based; conditions: Homo sapiens, HOS, 72 h, 3-day compound treatment
Procedure: as §1

TEAD1, sequence (P28347 whole entry): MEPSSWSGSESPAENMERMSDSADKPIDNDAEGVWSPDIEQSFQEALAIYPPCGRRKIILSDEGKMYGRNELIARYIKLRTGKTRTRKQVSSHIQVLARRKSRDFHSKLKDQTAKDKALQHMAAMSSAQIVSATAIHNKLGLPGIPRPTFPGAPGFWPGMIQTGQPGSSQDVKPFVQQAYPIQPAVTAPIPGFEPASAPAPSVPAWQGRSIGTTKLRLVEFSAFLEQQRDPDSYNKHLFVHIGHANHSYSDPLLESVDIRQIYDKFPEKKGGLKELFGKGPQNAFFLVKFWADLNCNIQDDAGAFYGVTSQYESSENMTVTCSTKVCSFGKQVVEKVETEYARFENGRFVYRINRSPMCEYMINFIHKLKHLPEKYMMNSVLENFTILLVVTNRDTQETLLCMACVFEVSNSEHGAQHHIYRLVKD
T1 sequence (Q96SW2 41-442): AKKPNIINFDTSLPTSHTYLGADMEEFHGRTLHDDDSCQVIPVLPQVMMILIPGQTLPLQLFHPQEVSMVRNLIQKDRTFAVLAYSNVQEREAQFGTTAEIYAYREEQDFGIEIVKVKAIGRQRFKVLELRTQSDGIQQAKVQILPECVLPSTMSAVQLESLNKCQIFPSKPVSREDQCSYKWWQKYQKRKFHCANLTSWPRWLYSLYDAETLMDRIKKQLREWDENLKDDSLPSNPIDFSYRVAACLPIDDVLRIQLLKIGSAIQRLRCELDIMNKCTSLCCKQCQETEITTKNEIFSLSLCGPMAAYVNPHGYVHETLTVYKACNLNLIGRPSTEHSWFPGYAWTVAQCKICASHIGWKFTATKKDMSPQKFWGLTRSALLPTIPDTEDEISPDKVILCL
T1 sequence (P28347 208-424): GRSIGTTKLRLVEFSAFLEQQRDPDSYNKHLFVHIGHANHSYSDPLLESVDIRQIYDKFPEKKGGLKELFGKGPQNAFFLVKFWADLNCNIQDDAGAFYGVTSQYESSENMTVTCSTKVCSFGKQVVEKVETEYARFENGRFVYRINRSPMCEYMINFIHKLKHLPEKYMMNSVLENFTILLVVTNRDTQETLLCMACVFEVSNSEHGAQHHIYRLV
CRBN-DDB1, sequence (Q96SW2 whole entry): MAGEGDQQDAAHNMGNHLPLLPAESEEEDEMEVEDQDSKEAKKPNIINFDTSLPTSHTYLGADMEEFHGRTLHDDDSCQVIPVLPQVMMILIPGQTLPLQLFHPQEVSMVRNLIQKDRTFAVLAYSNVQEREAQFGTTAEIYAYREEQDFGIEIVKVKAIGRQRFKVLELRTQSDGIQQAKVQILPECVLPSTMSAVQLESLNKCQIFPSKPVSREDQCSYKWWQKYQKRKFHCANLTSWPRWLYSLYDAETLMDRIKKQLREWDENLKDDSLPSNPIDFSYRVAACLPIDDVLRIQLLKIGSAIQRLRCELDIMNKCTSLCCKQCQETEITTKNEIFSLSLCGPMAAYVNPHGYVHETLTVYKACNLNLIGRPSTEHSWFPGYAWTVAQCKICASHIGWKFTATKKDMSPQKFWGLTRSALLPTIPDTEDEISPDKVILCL

CNC(=O)c1cc2c(c(F)c1-c1c(Cl)c(F)cc3c1C[C@@](CN[C@H]1CC[C@H](C(=O)N4CCC(CC5CCN(C(=O)COc6ccc(N7CCC(=O)NC7=O)c(C)c6)CC5)CC4)CC1)(c1ccccc1)O3)[C@@H](O)[C@@H](C)C2 [KG-FP-003] was tested, and the Proteome-wide selectivity (NCI-H226 cells) was “selective downregulation of TEAD1 and TEAD4”, the “TEAD degradation in CRBN-null HEK293T cells” value (TEAD1) was “minimal” and the “Repression of TEAD target genes after washout (qPCR)” value [1] was “sustained and pronounced repression”. For the same compound, the IC50 (KLE cells) was 59 ± 34 nM, the IC50 (CRBN-DDB1) was 591 ± 21 nM and the EC50 (SmBiT-CRBN+LgBiT-TEAD1) was 8 ± 4 nM. The IC50 (HOS cells) was 1.2 ± 1.5 nM.
